Data reported in patent publication US7524849B2, “5-arylpyrimidines as anticancer agents” (Wyeth Holdings Corporation, priority 2003, dated 2009).
Like-named read-outs stand apart in the source and are kept apart here. Marks after values point to notes of the source that are not given here.

Columns and labels:
S1 cells = test: MTS cytotoxicity test with S1 cells; type: cell-based, human; conditions: mean of 2 experiments
Description: (§1) Human cancer cell lines, unless otherwise noted, are obtained from the American Type Culture Collection (Rockville, Md.). The following drug-sensitive parental cell lines, and their derived drug-resistant counterparts, are obtained from the originators as listed: (a) S1 (parental line from a subclone of human colon carcinoma line LS174T) and derived S1-M1-3.2 (herein called S1-M1) which expresses the MXR drug transporter protein, are provided by Dr. L. Greenberger, Wyeth Research (Rabindran, S. K., He, H., Singh, M., Brown, E., Collins, K. I., Annable, T., and Greenberger, L. M. Reversal of a novel multidrug resistance mechanism in human colon carcinoma cells by fumitremorgin C. Cancer Res., 58: 5850-5858, 1998); (b) parental HL-60 human promyelocytic leukemia line and derived HL-60/ADR, which expresses the MRP1 drug transporter protein, are provided by Dr. M. Center, University of Kansas (McGrath, T., and Center, M. S. Adriamycin resistance in HL60 cells in the absence of detectable P-glycoprotein. Biochem. Biophys. […] J. Biol. Chem., 261: 7762-7770, 1986) via Dr. L. Greenberger, Wyeth Research.
(§2) The assay, which is sold in kit form by Promega (Madison, Wis.; CellTiter 96 AQueous Non-Radioactive Cell Proliferation Assay), is based on the conversion by viable cells, but not by dead cells, of the tetrazolium salt, MTS (3-(4,5-dimethylthiazol-2-yl)-5-(3-carboxymethoxyphenyl)-2-(4-sulphophenyl)-2H-tetrazolium, inner salt), into a water-soluble colored formazan which is detected by spectrophotometry. Compounds are tested at nine concentrations, in order to determine IC50 values. For the test procedure, cells are harvested by trypsinization, washed, counted and distributed to wells of 96-well flat-bottom microtiter plates at 1000 cells per well in 200 μL of medium. In addition, one row of wells on a separate plate receives cells as above (“time 0” plate). All plates are incubated at 37° in humidified 5% CO2 in air for about 24 hr.
(§3) On day 2, compounds for test are diluted and added to wells. Compounds are dissolved in DMSO at 10 mg/mL. For each compound, nine serial 2-fold dilutions are prepared in DMSO. Ten μL of each dilution in DMSO are transferred to 100 μL of medium, mixed well, and then 5 μL of this dilution are transferred in quadruplicate to wells containing cells. […] Plates are returned to the incubator for three days. At the time of drug addition to the experimental plates, the MTS assay is run on the “time 0” plate. This produces the “time 0 MTS value” which is related to the number of viable cells per well at the time of drug addition.
(§4) After three days of culture with test compounds (day 5 overall), the MTS assay is done on all wells of the experimental plates. The absorbance values of the quadruplicate sample wells are averaged and divided by the average of the “time 0” values. […] The nine values for each compound are plotted against concentration, and the concentration that produces a relative color yield half way between the maximum and minimum is taken as the IC50 value.
(§5) S1-M1 cells overexpress the MXR transporter which mediates resistance to some chemotherapeutics (Gottesman, M. M., Fojo, T., and Bates, S. E. Miltidrug resistance in cancer: role of ATP-dependent transporters. Nature Rev. Cancer, 2: 48-58, 2002). The IC50 values of representative examples of this invention, as well as reference compounds, on S1-M1 are compared to values on the sensitive parental S1 line.

S1-M1 cells = test: MTS cytotoxicity test with S1-M1 cells (MXR); type: cell-based, human; conditions: for IC50: S1-M1 cells, mean of 2 experiments; for Ratio: IC50 on S1-M1 cells/IC50 on S1 cells
Description: as §1, §2, §3, §4, §5

HL-60 cells = test: MTS cytotoxicity test with HL-60 cells; type: cell-based, human; conditions: mean of 2 experiments
Description: as §1, §2, §3, §4
as §5, with “HL-60/ADR” for “S1-M1”, “multidrug resistance protein MRP1” for “MXR transporter”, “Multidrug” for “Miltidrug”, “HL-60” for “S1”

KB-8-5 cells = test: MTS cytotoxicity test with KB-8-5 cells (moderate P-glycoprotein); type: cell-based, human; conditions: for IC50: KB 8.5 cells, mean of 2 experiments; for Ratio 8.5/KB: IC50 on KB 8.5 cells/IC50 on KB cells
Description: as §1, §2, §3, §4

KB cells = test: MTS cytotoxicity test with KB cells; type: cell-based, human; conditions: mean of 2 experiments
Description: as §1, §2, §3, §4

KB-V1 cells = test: MTS cytotoxicity test with KB-V1 cells (very high P-glycoprotein); type: cell-based, human; conditions: for IC50: KB VI cells, mean of 2 experiments; for Ratio VI/KB: IC50 on KB VI cells/IC50 on KB cells; for recognition by P-glycoprotein: inferred from change in IC50 KB-V1 vs KB
Description: as §1, §2, §3, §4

HL-60/ADR cells = test: MTS cytotoxicity test with HL-60/ADR cells (MRP1); type: cell-based, human; conditions: for IC50: HL-60/ADR cells, mean of 2 experiments; for Ratio: IC50 on HL-60/ADR cells/IC50 on HL-60 cells
Description: as §1, §2, §3, §4
as §5, with “HL-60/ADR” for “S1-M1”, “multidrug resistance protein MRP1” for “MXR transporter”, “Multidrug” for “Miltidrug”, “HL-60” for “S1”

COLO 205 cells = test: MTS cytotoxicity test with COLO 205 cells; type: cell-based, human; conditions: three days with compound
Description: as §2
On day 2, compounds for test are diluted and added to wells. Compounds are dissolved in DMSO at 10 mg/mL. For each compound, nine serial 2-fold dilutions are prepared in DMSO. Ten μL of each dilution in DMSO are transferred to 100 μL of medium, mixed well, and then 5 μL of this dilution are transferred in quadruplicate to wells containing cells. The final high concentration of each compound is typically 5 μM. Plates are returned to the incubator for three days. At the time of drug addition to the experimental plates, the MTS assay is run on the “time 0” plate. This produces the “time 0 MTS value” which is related to the number of viable cells per well at the time of drug addition.
After three days of culture with test compounds (day 5 overall), the MTS assay is done on all wells of the experimental plates. The absorbance values of the quadruplicate sample wells are averaged and divided by the average of the “time 0” values. The average of control wells without drug, divided by the average “time 0” value, gives the maximal relative increase in MTS color yield due to cell growth during the final three days of culture. The average of control wells with high drug concentration, divided by the “time 0” value, gives the minimal relative color yield for cells that were completely killed. The nine values for each compound are plotted against concentration, and the concentration that produces a relative color yield half way between the maximum and minimum is taken as the IC50 value.
COLO 205 is a human colon carcinoma cell line that is used for comparative testing of the examples of this invention and several reference compounds. This line is sensitive to paclitaxel and vincristine.

[1] = test system: H157 Human Non-Small Cell Lung Carcinoma; conditions: for T/C on day 0 / T/C on day 3 / T/C on day 7 / T/C on day 10 / T/C on day 13: schedule day 0;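 on all read-outs here: subcutaneous flank tumors in female athymic nu/nu mice, staged near 100 mm^3 on day 0, tumor volume from caliper measurements, vehicle-dosed controls on the same schedule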
Description: The ability of compounds of this invention to inhibit tumor growth in animals is studied in the athymic mouse xenograft standard pharmacological test. Female nu/nu mice in an outbred albino background are obtained from Charles River Laboratories (Wilmington, Mass.). Animals are injected subcutaneously on the flank with the desired tumor cell suspension. Several days later, mice with tumors of approximately 100 mm^3 are selected from those injected (staged) and randomly distributed into groups of 5-10. The day of staging is called day 0. Compounds of the invention, formulated in saline, are administered to animals by intravenous injection or oral gavage on various schedules starting on day 0 or 1, as noted in the tables. The control group in each experiment is dosed with vehicle on the same schedule. Tumor size is measured every 3-7 days with calipers in two orthogonal dimensions, and tumor volume is calculated from the formula volume=[(length×width^2)/2].
Tumor/Control (T/C) is obtained by dividing the mean tumor volume of the treated group by the mean tumor volume of the control group on each measurement day. […] A p value≦0.05, determined by one-side Student's t-test, is required for statistical significance. A treatment dose is defined as toxic if more than 30% of the animals die from a compound-related toxicity.

| SMILES | IC50 (S1 cells; Homo sapiens) [nM] | IC50 (S1-M1 cells; Homo sapiens) [nM] | Ratio (S1-M1 cells) | IC50 (HL-60 cells; Homo sapiens) [nM] | IC50 (KB-8-5 cells; Homo sapiens) [nM] | Ratio 8.5/KB (KB-8-5 cells) | IC50 (KB cells; Homo sapiens) [nM] | IC50 (KB-V1 cells; Homo sapiens, KB-V1) [nM] | Ratio VI/KB (KB-V1 cells) | IC50 (HL-60/ADR cells; Homo sapiens, HL60/ADR) [nM] | Ratio (HL-60/ADR cells) | recognition by P-glycoprotein (KB-V1 cells) | IC50 (COLO 205 cells; Homo sapiens, 72 h) [µM] | further results |
| --- | --- | --- | --- | --- | --- | --- | --- | --- | --- | --- | --- | --- | --- | --- |
| O=C1c2c(O)ccc(O)c2C(=O)c2c(NCCNCCO)ccc(NCCNCCO)c21 [Mitoxantrone, reference compound] | 25 | > 3000 | >120 | 17 | 256 | 1.9 | 132 | 401 | 3.0 | 259 | 15 |  |  | Ratio (S1-M1 cells; listed as mitoxantrone): > 120 |
| CNc1nc(Cl)c(-c2c(F)cc(OCCCN(C)C)cc2F)c(NCC(F)(F)F)n1.O=C(O)C(F)(F)F [Example 20a, 6-Chloro-5-{4-[3-(dimethylamino)propoxy]-2,6-difluorophenyl}-N^2-methyl-N^4-(2,2,2-trifluoroethyl)pyrimidine-2,4-diamine trifluoroacetic acid salt] | 95 | 82 | 0.9 | 72 | 57 |  | 26 | 140 | 5.5 | 68 | 0.9 | show recognition by P-glycoprotein, but much less than that shown by paclitaxel and vincristine | 0.056 |  |
| COc1cccc2c1C(=O)c1c(O)c3c(c(O)c1C2=O)C[C@@](O)(C(=O)CO)C[C@@H]3O[C@H]1C[C@H](N)[C@H](O)[C@H](C)O1 [Doxorubicin, reference compound] | 61 | 2880 | 47 | 40 | 255 | 6.8 | 38 | > 300 | >79 | > 3000 | >75 |  |  | Ratio VI/KB (KB-V1 cells; listed as doxorubicin): > 79; Ratio (HL-60/ADR cells; listed as doxorubicin): > 75 |
| CN(C)CCCOc1cc(F)c(-c2c(Cl)nc(-c3cnccn3)nc2NCC(F)(F)F)c(F)c1.Cl [Example 25a, 6-Chloro-5-{4-[3-(dimethylamino)propoxy]-2,6-difluorophenyl}-2-pyrazin-2-yl-N-(2,2,2-trifluoroethyl)pyrimidin-4-amine hygrogen chloride] |  |  | 1.3 |  |  |  |  |  | 4.9 |  | 0.9 | show recognition by P-glycoprotein, but much less than that shown by paclitaxel and vincristine |  | T/C on day 0 ([1]; 5 mg/kg IV, H157 (Table 10)): 1.02; T/C on day 3 ([1]; 5 mg/kg IV, H157 (Table 10)): 0.69*; T/C on day 7 ([1]; 5 mg/kg IV, H157 (Table 10)): 0.44**; T/C on day 10 ([1]; 5 mg/kg IV, H157 (Table 10)): 0.29**; T/C on day 13 ([1]; 5 mg/kg IV, H157 (Table 10)): 0.23**; T/C on day 0 ([1]; 10 mg/kg IV, H157): 1.01; T/C on day 3 ([1]; 10 mg/kg IV, H157): 0.49**; T/C on day 7 ([1]; 10 mg/kg IV, H157): 0.36**; T/C on day 10 ([1]; 10 mg/kg IV, H157): 0.22**; T/C on day 13 ([1]; 10 mg/kg IV, H157): 0.12**; compound toxicity ([1]; H157 NSCLC, intravenously on day 0, highest dose (10 mg/kg)): some compound toxicity is observed; IC50 (S1 cells): 27 nM; IC50 (S1-M1 cells): 36 nM; IC50 (HL-60 cells): 23 nM; IC50 (KB-8-5 cells): 24 nM; IC50 (KB cells): 20 nM; IC50 (KB-V1 cells): 99 nM; IC50 (HL-60/ADR cells): 21 nM; IC50 (COLO 205 cells): 0.018 µM |
| CN(C)CCCOc1cc(F)c(-c2c(Cl)nc(-c3ccc4ccccc4n3)nc2NCC(F)(F)F)c(F)c1 [Example 30, 6-Chloro-5-{4-[3-(dimethylamino)propoxy]-2,6-difluorophenyl}-2-quinolin-2-yl-N-(2,2,2-trifluoroethyl)pyrimidin-4-amine] | 138 | 201 | 1.5 | 88 | 68 |  | 60 | 82 |  | 71 | 0.8 |  | 0.0074 |  |
